According to patent publication US12495798B2, “Nicotinamide compound and herbicidal composition comprising compound” (KOREA RESEARCH INSTITUTE OF CHEMICAL TECHNOLOGY, priority 2019, dated 2025):

Columns and labels:
Assay type in all cases: in vivo
barnyard grass = assay: Herbicidal activity test against upland field weeds (foliar treatment test); settings: Echinochloa crus-galli, 50 g ai/ha, scale 0-100
Procedure, shortened: (§1)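 Weeds were raised from seed or rootstocks in horticultural soil in a greenhouse (30±5° C., 14/10 h light/dark), then foliage was hand-sprayed with compound at 50 or 75 g a.i./ha in 50% acetone with 0.1% Tween-20. Control was scored visually 0–100 against untreated plants after 14 days, or 21 if needed.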

quack grass = assay: as above; design: key to Foliar treatment herbicidal activity, quack grass: 0 (no control); 100 (complete control); settings: 50 g ai/ha, scale 0-100
Procedure, shortened: as §1

fall panicum = assay: as above; settings: Panicum dichotomiflorum, 50 g ai/ha, scale 0-100
Procedure, shortened: as §1

bindweed = assay: as above; settings: 50 g ai/ha, scale 0-100
Procedure, shortened: as §1

indian jointvetch = assay: Herbicidal activity test against upland field weeds (soil treatment test); design: key to Soil treatment herbicidal activity, Indian jointvetch: 0 (no control); 100 (complete control); settings: 50 g ai/ha, scale 0 (no control) to 100 (complete control)
Procedure, shortened: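 Pre-emergence test: seeds or rootstocks were sown in fertilized sandy loam, and the next day the soil surface was sprayed with compound at 50 or 75 g a.i./ha in 50% acetone/0.1% Tween-20. Plants were grown in a greenhouse (30±5 °C, 14/10 h light/dark), then visually scored 0–100 against untreated at 14 d (21 d if needed).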

corn = assay: Phytotoxicity test for upland field crops (foliar treatment test); design: key: 0 (no harm); 9 (complete withered)
Procedure, shortened: (§2)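 Application rate ranged 19˜300 g a.i./ha, delivered as a foliar spray (100 ml/m^2) in 33% acetone with 0.1% Tween-20 to crops raised at 30±5 °C under 14/10 h light/dark. Symptoms were assessed 7 and 14 days post-treatment, extending to 21 days where necessary, using a 0–9 injury grade relative to untreated control.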

cotton = assay: as above; design: key: 0 (no harm); 9 (complete withered)
Procedure, shortened: as §2

rice = assay: as above; design: key: 0 (no harm); 9 (complete withered)
Procedure, shortened: as §2

soybean = assay: as above; design: key: 0 (no harm); 9 (complete withered)
Procedure, shortened: as §2

wheat = assay: as above; design: key: 0 (no harm); 9 (complete withered)
Procedure, shortened: as §2

[1] = 50 g ai/ha, Corn (7 days after treatment)
[2] = 50 g ai/ha, Corn (14 days after treatment)
[3] = 100 g ai/ha, Corn (7 days after treatment)
[4] = 100 g ai/ha, Corn (14 days after treatment)
[5] = 50 g ai/ha, Cotton (7 days after treatment)
[6] = 50 g ai/ha, Cotton (14 days after treatment)
[7] = 100 g ai/ha, Cotton (7 days after treatment)
[8] = 100 g ai/ha, Cotton (14 days after treatment)
[9] = 50 g ai/ha, Rice (7 days after treatment)
[10] = 50 g ai/ha, Rice (14 days after treatment)
[11] = 100 g ai/ha, Rice (7 days after treatment)
[12] = 100 g ai/ha, Rice (14 days after treatment)
[13] = 50 g ai/ha, Soybean (7 days after treatment)
[14] = 50 g ai/ha, Soybean (14 days after treatment)
[15] = 100 g ai/ha, Soybean (7 days after treatment)
[16] = 100 g ai/ha, Soybean (14 days after treatment)
[17] = 50 g ai/ha, Wheat (7 days after treatment)
[18] = 50 g ai/ha, Wheat (14 days after treatment)
[19] = 100 g ai/ha, Wheat (7 days after treatment)
[20] = 100 g ai/ha, Wheat (14 days after treatment)

Row | Compound | pest or weed control at 50 g/ha (barnyard grass) [%] | Foliar treatment herbicidal activity, quack grass (quack grass) | pest or weed control at 50 g/ha (fall panicum) [%] | pest or weed control at 50 g/ha (bindweed) [%] | Foliar treatment phytotoxicity, Corn (corn; [1]) | Foliar treatment phytotoxicity, Corn (corn; [2]) | Foliar treatment phytotoxicity, Corn (corn; [3]) | Foliar treatment phytotoxicity, Corn (corn; [4]) | Foliar treatment phytotoxicity, Cotton (cotton; [5]) | Foliar treatment phytotoxicity, Cotton (cotton; [6]) | Foliar treatment phytotoxicity, Cotton (cotton; [7]) | Foliar treatment phytotoxicity, Cotton (cotton; [8]) | Foliar treatment phytotoxicity, Rice (rice; [9]) | Foliar treatment phytotoxicity, Rice (rice; [10]) | Foliar treatment phytotoxicity, Rice (rice; [11]) | Foliar treatment phytotoxicity, Rice (rice; [12]) | Foliar treatment phytotoxicity, Soybean (soybean; [13]) | Foliar treatment phytotoxicity, Soybean (soybean; [14]) | Foliar treatment phytotoxicity, Soybean (soybean; [15]) | Foliar treatment phytotoxicity, Soybean (soybean; [16]) | other results
1 | Cn1nnc(COCc2nc(C(F)(F)Cl)ccc2C(=O)Nc2nnnn2C)n1 [Compound No. 2-78, 6-(chlorodifluoromethyl)-N-(1-methyl-1H-tetrazol-5-yl)-2-(((2-methyl-2H-tetrazol-5-yl)methoxy)methyl)nicotinamide] | 70 | 0 | 70 | 40 | 2 | 1 | 3 | 1 | 5 | 9 | 6 | 9 | 5 | 4 | 6 | 5 | 5 | 5 | 6 | 6 | pest or weed control at 50 g/ha (indian jointvetch): 95%; Foliar treatment phytotoxicity, Wheat (wheat; [17]): 0; Foliar treatment phytotoxicity, Wheat (wheat; [18]): 0; Foliar treatment phytotoxicity, Wheat (wheat; [19]): 0; Foliar treatment phytotoxicity, Wheat (wheat; [20]): 0
2 | Cn1nnc(COCc2nc(C(F)(F)C(F)(F)F)ccc2C(=O)Nc2nnnn2C)n1 [Compound No. 2-81, N-(1-methyl-1H-tetrazol-5-yl)-2-(((2-methyl-2H-tetrazol-5-yl)methoxy)methyl)-6-(perfluoroethyl)nicotinamide] | 80 | 0 | 70 | 60 | 2 | 1 | 2 | 1 | 4 | 9 | 4 | 9 | 5 | 3 | 6 | 5 | 5 | 6 | 6 | 7 | Soil treatment herbicidal activity, Indian jointvetch (indian jointvetch): 100; Foliar treatment phytotoxicity, Wheat (wheat; [17]): 0; Foliar treatment phytotoxicity, Wheat (wheat; [18]): 0; Foliar treatment phytotoxicity, Wheat (wheat; [19]): 0; Foliar treatment phytotoxicity, Wheat (wheat; [20]): 0
3 | Cn1nnc(COCc2nc(C(F)F)ccc2C(=O)Nc2nnnn2C)n1 [Compound No. 2-84, 6-(difluoromethyl)-N-(1-methyl-1H-tetrazol-5-yl)-2-(((2-methyl-2H-tetrazol-5-yl)methoxy)methyl)nicotinamide] | 95 | 0 | 90 | 60 | 2 | 1 | 3 | 4 | 5 | 9 | 5 | 9 | 6 | 7 | 6 | 9 | 6 | 7 | 6 | 8 | pest or weed control at 50 g/ha (indian jointvetch): 98%; Foliar treatment phytotoxicity, Wheat (wheat; [17]): 0; Foliar treatment phytotoxicity, Wheat (wheat; [18]): 0; Foliar treatment phytotoxicity, Wheat (wheat; [19]): 0; Foliar treatment phytotoxicity, Wheat (wheat; [20]): 0
4 | Cn1nnc(COCc2nc(C(F)(F)F)ccc2C(=S)Nc2nnnn2C)n1 [Compound No. 2-106, N-(1-methyl-1H-tetrazol-5-yl)-2-(((2-methyl-2H-tetrazol-5-yl)methoxy)methyl)-6-(trifluoromethyl)pyridin-3-carbothioamide] | 80 | 0 | 70 | 40 | 5 | 4 | 6 | 7 | 5 | 9 | 5 | 9 | 6 | 7 | 6 | 8 | 5 | 8 | 6 | 8 | Soil treatment herbicidal activity, Indian jointvetch (indian jointvetch): 100; Foliar treatment phytotoxicity, Wheat (wheat; [17]): 0; Foliar treatment phytotoxicity, Wheat (wheat; [18]): 0; Foliar treatment phytotoxicity, Wheat (wheat; [19]): 0; Foliar treatment phytotoxicity, Wheat (wheat; [20]): 0
